≈ marks a conversion by molar mass, not a printed value. Read-outs that look alike come from different tables or passages of the source.
Columns and labels:
[1] = test system: Salmonella typhimurium Ames II Mixed Strains (TA7001-TA7006) and TA98; assay: Genotoxicity assay (AmesIIb mutagenicity test); type: cell-based; conditions: Salmonella typhimurium; also: key: an AmesIIb score of 1 shows no genotoxicity signals
Procedure, shortened: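 Histidine-requiring strains were exposed to graded compound concentrations, both without and with a mammalian metabolic activation system. Base substitutions were detected with a mixture of TA7001–TA7006 and frameshifts with TA98. Reversion to histidine independence was scored by growth in histidine-lacking medium.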

[2] = test system: Mycobacterium tuberculosis strain H37Rv; assay: Test 2: MIC determination against M. tuberculosis, resazurin fluorescence; type: cell-based; conditions: Mycobacterium tuberculosis, H37RV, Test 2, M. tuberculosis H37Rv; for MIC90: read-out: Bacterial activity MIC90; for IC50: read-out: Bacterial activity pMIC50 (converted)
[3] = HTChem stab assay (chemical stability in buffer pH2, pH4 and pH7 vs DMSO reference); type: physicochemical; conditions: 72 h, 50 µM; for Chemical stability data, Buffer pH2: pH 2; for Chemical stability data, Buffer pH4: pH 4; for Chemical stability data, Buffer pH7: pH 7
Procedure, shortened: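 Compound from 10 mM DMSO stock shaken 72 h at room temperature in Buffer/DMSO (2:1) at pH2 (0.1N HCl), pH4 or pH7 (phosphate), alongside a DMSO control. Samples analysed by LC/UV/MS against the DMSO reference; degradant peaks identified by MS and sample purity reported.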

[4] = Metabolic stability in liver microsomes (intrinsic clearance); type: in vitro ADME; conditions: microsomes
Procedure, shortened: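 Parent-compound loss, followed by LC-MS/MS peak area versus t=0, was tracked over 0, 5, 10, 20, 40 and 60 min in NADPH-initiated (1 mM) microsomal incubations: 0.5 mg/ml protein, pH 7.4 phosphate, 1 mM MgCl2, 37° C, substrate typically 1 μM. Half-life from regression gave intrinsic clearance per mg protein.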

M. tuberculosis = conditions: cited from earlier work
[5] = test system: M. tuberculosis H37Rv inside macrophages; conditions: strain M. tuberculosis H37Rv; cited from earlier work
[6] = mouse, pH 7.4, Metabolic Stability Half life (mouse, min.)
[7] = mouse, pH 7.4, mouse liver microsomes, read-out: Metabolic Stability (liver microsome intrinsic clearance) Clearance (mouse, μl/min./mg protein)

| Structure (SMILES) | GeneTox AmesIIb Score [1] | MIC90 [2] [µM] | IC50 [2] [pM] | Chemical stability data, Vehicle DMSO [3] [%] | Chemical stability data, Buffer pH2 [3] [%] | Chemical stability data, Buffer pH4 [3] [%] | Chemical stability data, Buffer pH7 [3] [%] | half-life at 1 µM ([4]; human, pH 7.4, Metabolic Stability Half life (human, min.)) [h] | microsomal CLint at 1 µM ([4]; human, pH 7.4, human liver microsomes, read-out: Metabolic Stability (liver microsome intrinsic clearance) Clearance (human, μl/min./mg protein)) [µL/min/mg] | half-life at 1 µM [4, 6] [h] | microsomal CLint at 1 µM [4, 7] [µL/min/mg] | activity against MDR tuberculosis (M. tuberculosis; MDR tuberculosis) | activity against replicating and non-replicating bacteria (M. tuberculosis; replicating and non-replicating bacteria) | MIC50 [5] [µM] |
| --- | --- | --- | --- | --- | --- | --- | --- | --- | --- | --- | --- | --- | --- | --- |
| CCc1nc2ncc(C)cn2c1C(=O)NCc1ccc(-c2nc3n(n2)CCC(O)C3)cc1 (centres unmarked) [Compound 29ab] | 1 | 3.19 (≈ 1.38 µg/mL) | > 500000 | 100 | 100 | 100 | 100 | > 3 | < 7.7 | > 3 | < 7.7 | – | – | – |
| CCc1nc2ncc(C)cn2c1C(=O)NCc1ccc(-c2nc3n(n2)CCC(OCCOC)C3)cc1 (centres unmarked) [Compound 30ab] | 1 | 0.332 (≈ 0.163 µg/mL) | 109000 | 98 | 98 | 98 | 98 | – | – | 2.55 | 9.08 | – | – | – |
| CCc1nc2ncc(C)cn2c1C(=O)NCc1ccc(-c2nc3n(n2)CCCC3)cc1 [Compound 31ab] | 1 | 0.052 (≈ 0.0216 µg/mL) | 16000 | 100 | 100 | 100 | 100 | – | – | > 3 | < 7.7 | – | – | – |
| CCc1nc2nc(C)ccn2c1C(=O)NCc1ccc(-c2cn3c(n2)CC(C(F)(F)F)CC3)cc1 (centres unmarked) [Compound 34ab] | 1 | 0.387 (≈ 0.187 µg/mL) | 94600 | 94 | 94 | 95 | 93 | – | – | > 3 | < 7.7 | – | – | – |
| CCc1nc2nc(F)ccn2c1C(=O)NCc1ccc(-c2cn3c(n2)CC(C)CC3)cc1 (centres unmarked) [Compound 35ab] | 1 | 0.041 (≈ 0.0177 µg/mL) | 13400 | 100 | 100 | 99 | 98 | – | – | 0.498 | 46.4 | – | – | – |
| CCc1nc2ccc(Cl)cn2c1C(=O)NCc1ccc(N2CCC(c3ccc(OC(F)(F)F)cc3)CC2)cc1 [Compound Q203] | – | – | – | – | – | – | – | – | – | – | – | activity against MDR tuberculosis | highly active | 0.00028 (≈ 0.000156 µg/mL) |

Reference: patent US20250034171A1, “IMIDAZOPYRIDINE AMIDES AND RELATED COMPOUNDS FOR USE IN THE TREATMENT OF BACTERIAL INFECTIONS” (priority 2021, published 2025)
